From patent US8076449B2, “Therapeutic agents of colivelin for neurodegenerative diseases” (Tomohiro Chiba, priority 2004, dated 2011) come the findings set out here.

Entries after “also recorded” stand apart in the source; their conditions may differ. Ends that are not written are not given here.

Assay [1] relates to F11 cells transformed with M146L-PS1. Nature of the assay: Neuronal cell death induced by M146L-PS1 gene, Trypan blue exclusion assay. To be noted: M146L-PS1, 72 hours after transformation. The format is cell-based, rat/mouse hybrid. The protocol: (§1) F11 cell, the hybrid cell of rat embryonic day 13 (E13) primary cultured neuronal cell with mouse neuroblastoma NTG18 cell, was cultured in Ham's F-12 medium (Life Technologies, Gaithersburg, Md.) containing 18% FBS (Hyclone, Logan, Utah) and antibiotics as previously reported (Platika D, et al., 1985, Proc Natl Acad Sci USA 82: 3499-3503; Yamatsuji T, et al., 1996, Science 272: 1349-1352; Huang P, et al., 2000, Mol Hum Reprod 6: 1069-1078; and Niikura T, et al., 2001, J Neuroscience, 21: 1902-1910).
(§2) (i) Test of Neuronal Cell Death Induced by M146L-PS1 or G93R-SOD1 Gene
The F11 cells (7×10^4 cells/well, 6-well plate, 12- to 16-hour culture in Ham's F-12 (18% FBS) medium) were transformed with M146L-PS1 or G93R-SOD1 gene by lipofection (0.5 μg of cDNA; 1 μl of LipofectAMINE; 2 μl of PLUS Reagent) under serum-free conditions for 3 hours and cultured for 2 hours in Ham's F-12 (18% FBS) medium. The medium was replaced by Ham's F-12 (10% FBS) in the presence or absence of varying concentrations (100 aM, 1 fM, 10 fM, 100 fM, 1 pM, 10 pM, 100 pM, 1 nM, 10 nM, or 100 nM) of colivelin or AGA-CBR-HNG17 peptides. After 72 hours of the transformation, cell mortality was measured by Trypan blue exclusion assay as previously reported (Hashimoto Y, et al., 2001, J Neurosci 21: 9235-9245; and Hashimoto Y, et al, 2001, Proc Natl Acad Sci USA 98: 6336-6341). […]

Assay [2] relates to F11 cells transformed with G93R-SOD1. Nature of the assay: Neuronal cell death induced by G93R-SOD1 gene, Trypan blue exclusion assay. The format is cell-based, rat/mouse hybrid. The protocol: as §1, §2
The F11 cells (7×10^4 cells/well, 6-well plate, 12- to 16-hour culture in Ham's F-12 (18% FBS) medium) were transformed with M146L-PS1 or G93R-SOD1 gene by lipofection (0.5 μg of cDNA; 1 μl of LipofectAMINE; 2 μl of PLUS Reagent) under serum-free conditions for 3 hours and cultured for 2 hours in Ham's F-12 (18% FBS) medium. […] After 72 hours of the transformation, cell mortality was measured by Trypan blue exclusion assay as previously reported (Hashimoto Y, et al., 2001, J Neurosci 21: 9235-9245; and Hashimoto Y, et al, 2001, Proc Natl Acad Sci USA 98: 6336-6341).
ADNF has already been reported to protect neurons from toxicity caused by SOD1 mutations. […] After 72 hours of the transformation, cell mortality was measured by Trypan blue exclusion assay (FIG. 3).

In a further assay the test system is G93A-SOD1 Tg mice. The experiment in a line: Motor performance (rotarod), onset and survival test with ALS model animal, icv administration (Example 3). The format is in vivo, mouse. An excerpt: Transgenic (Tg) mice (hereinafter, referred to as “G93A-SOD1 Tg mice”) expressing human FALS-associated SOD1 mutant gene with a mutation (G93A) from Gly to Ala at 93 position are the best-established mouse model of ALS (Gurney M E, et al., 1994, Science 264: 1772-1775; and Gurney M E, et al., 1997, J Neurol Sci 152 Suppl 1: S67-73). The G93A-SOD1 Tg mice manifest symptoms quite similar to human ALS after normal birth and rapidly result in death in all cases. The G93A-SOD1 Tg mice, which have the onset of the regression of motor neurons similar clinically and pathologically to that in human ALS, have been known so far to be the most excellent model of ALS throughout the world and employed for identifying effective candidate drugs for ALS patients.
The model mice were used to confirm the in vivo effect of colivelin against neurotoxicity caused by G93A-SOD1.
The G93A-SOD1 Tg mice were purchased from Jackson Laboratories (Bar Harbor, Me.). The G93A-SOD1 Tg mice were kept as hemizygote mice by the mating thereof with C57BL/6J mice (CLEA Japan, Inc). The mice were raised in an SPF room (specific pathogen-free animal facility; 23±1° C., 55±5% humidity) in the 12-hour light/12-hour dark cycle (7:00 AM-7:00 PM). The mice were freely fed with gamma ray-irradiated Picolab Rodent Diet 20 (PMI Feeds Inc. St. Louis, Mo.) and sodium hyposulfite (5 ppm)-containing aseptic deionized distilled water.
The G93A-SOD1 Tg mice at 10 weeks of age were put under anesthesia by the intraperitoneal injection of 10% Nembutal (sodium pentobarbital; 60 mg/kg). A hole was made on the cranial bone with a drill on a sterotaxic surgery apparatus to aseptically transplant the C315GS-4 cannula system for mouse (Plastics One Inc., Roanoke, Va.) to the mouse left lateral ventricle. The cannula was fixed with a surgical adhesive and dental cement.
The mice at 80 days of age were divided at random to a saline (control)-administered group (n=7), 100 fmol colivelin-administered group (n=6), 10 pmol colivelin-administered group (n=7), 1 nmol colivelin-administered group (n=7), and 30 nmol ADNF-administered group (n=5). Until the end of the experiment, the control group received the intracerebroventricular (icv) injection of 3 μl of saline each day, while the colivelin-administered groups and the ADNF-administered group received the icy injection of 3 μl of colivelin (100 f mol, 10 pmol, or 1 nmol) and 3 μI of 30 nmol ADNF, respectively. In this context, colivelin and ADNF were separately dissolved in a saline for the injection. The injection was performed with the cannula in C315IS-4 connected to Hamilton syringe through a cannula tube (C232, PESO/Thin wall, Plastic One).
The motor function (motor performance) was evaluated weekly with a rotarod (CLEA Japan Inc). After the cannulation, the mice were acclimated to the rotarod for 2 days. The mice were placed onto a rotating rod at a speed of 5 rpm, and the time for which each mouse could remain on the rod was automatically detected. The test was conducted according to the protocol wherein the test was completed as a score of 7 minutes if the mouse remained on the rod for 7 minutes (Li M, et al., 2000, Science 288: 335-339; and Kaspar B K, et al., 2003, Science 301: 839-842). Disease onset was defined as the first day when the mouse could not remain on the rotarod for 7 minutes.
Death was defined when the mouse was unable to right itself within 30 seconds after being placed on its back (Li M, et al., op. cit).
In general terms: Falling from the rotarod earlier than controls is read as motor impairment.

Setting [3] is: 100 fmol colivelin icv each day.

“PAGASRLLLLTGEIDLP [AGA-C8R-HNG17, Pro-Ala-Gly-Ala-Ser-Arg-Leu-Leu-Leu-Leu-Thr-Gly-Glu-Ile-Asp-Leu-Pro, reference compound]”: the “concentration of complete protection against cell death induced by mutant PS1” value in assay [1] is recorded as 10 pM. Further, the “neuroprotective effect on cell death induced by SOD1 mutant” value in assay [2] (varying concentrations 100 aM to 100 nM) is recorded as “could not protect; also recorded: not observed”.
For the sequence SALLRSIPA [ADNF, reference compound], in the assay on G93A-SOD1 Tg mice (30 nmol ADNF icv each day), the mean survival days is listed as 145.0 days and the “time up to which motor function was maintained (rotarod)” value was “approximately 130 days”.
Turning to SALLRSIPAPAGASRLLLLTGEIDLP [colivelin], in assay [1], the “concentration completely suppressing cell death induced by mutant PS1” value was found to be 100 fM. Further, the “concentration completely suppressing cell death induced by G93R-SOD1” value in assay [2] (72 hours after transformation) stood at 1 pM. This sequence yielded a mean survival days in the assay with G93A-SOD1 Tg mice (10 pmol colivelin icv each day) of 159.4 days. Also, the “prolongation of life span” value in the assay on G93A-SOD1 Tg mice (10 pmol colivelin icv each day, versus control) stood at 11.7%. For the same sequence, in the assay on G93A-SOD1 Tg mice (1 nmol colivelin icv each day), the “delay of the disease onset” value is “approximately 17 day”, the mean survival days came to 156.7 days and the “protective action on motor function (rotarod)” value is on record as “most potent protective action”. Moreover, in the assay on G93A-SOD1 Tg mice (setting [3]), the mean survival days came out at 153.3 days and the “time of deterioration of motor function (rotarod)” value was “approximately 120 days”. The “recovery of motor function” value in the assay with G93A-SOD1 Tg mice (experiments using ALS model mice (summary statement)) was “approximately 70%”.
